Test system: aqueous tear production
Experiment: Schirmer tear test in dogs with aqueous tear deficiency / KCS
Format: in vivo, dog
Excerpt: The Schirmer tear test is a test of aqueous tear production. The test depends upon observing the extent of wetting of a strip of filter paper placed over the lower lid of an eye for a specified time. Standardized strips are commercially available. The strip is folded at a notched marking and is then placed over the edge of the lateral one-third of the eyelid. The strip is usually left in place for a period of time while the patient looks straight ahead in dim light.
The degree of wetting of the paper is measured in mm from the notch. For human patients, a normal end point is 5 mm of wetting at five minutes. For canine patients, the normal tear production is 14 to 20 mm. of wetting at one minute.

[1] = Example 3 English Bulldog, three drops of 2% pilocarpine by mouth, after two hours

SMILES | Schirmer tear test value, left eye [1] [mm/minute] | Schirmer tear test value, right eye [1] [mm/minute] | Schirmer tear test values, both eyes (Example 4 Miniature Poodle, one drop 2% pilocarpine by mouth two times daily with ophthalmic petrolatum, after two weeks) [mm/minute] | benefit of treatment (tear deficiency, conjunctivitis) (Example 1 Poodle, topical, both eyes twice daily for nine weeks)
CC[C@@H]1C(=O)OC[C@@H]1Cc1cncn1C [pilocarpine] | 10 | 0 | 0 | 
C[C@@H]1C[C@H]2[C@@H]3CCC4=CC(=O)C=C[C@]4(C)[C@@]3(F)[C@@H](O)C[C@]2(C)[C@@]1(O)C(=O)CO [dexamethasone] |  |  |  | without benefit

— patent US4839342A, “Method of increasing tear production by topical administration of cyclosporin” (University of Georgia Research Foundation, Inc., priority 1987, dated 1989)
